Measurements published in patent US12467038B2, “Methods of culturing human pluripotent cells” (Hadasit Medical Research Services and Development Ltd., priority 2019, dated 2025).

System: FGF5-GFP hPSC reporter clones (HES-1)
Assay: FACS analysis of FGF5-GFP expression in hPS-FGF5 reporter clones
Format: cell-based, human
Procedure: hPSC culture—hPSC culture—hPSC lines HES-1, HES-2 (10), HADC100, HADC102 (36) and H7 (9) were cultured on human foreskin feeders in serum free medium as described (30, 87). hPSC culturing in suspension was performed as reported (31) with minor modifications of the culture medium that was composed of Neurobasal medium, 14% KO-SR, L-glutamine 2 mM, 50 units/ml penicillin, 50 μg/ml streptomycin, 1% nonessential amino acids (all from Invitrogen, Carlsbad, Calif., USA). The medium was supplemented with FGF2 20 ng/ml, and activin A 25 ng/ml (both from Peprotech, Rocky Hill, N.J., USA), and laminin 0.5 μg/ml (Sigma-Aldrich, St. Louis, Mo., USA). For hPSC culturing on mouse LN111, 3-D Culture Matrix Laminin I (CULTREX, TREVIGEN, #3446-005-01, Gaithersburg, Md., USA) was diluted to a concentration of 1 mg/ml. Tissue culture dishes were coated with LN111, incubated overnight at 37° C. to promote matrix gelling, and washed with PBS. hPSCs were cultured on LN111 in a chemically defined medium composed of DMEM/F12, B27 supplement (1:50), N2 supplement (1:100) 2 mM L-glutamine, 50 units/ml penicillin, 50 μg/ml streptomycin (all from Invitrogen), and supplemented with 20 ng/ml bFGF (Peprotech). The cells were cultured in 5% CO2, 5% O2 incubator They were passaged every 7 days as small clusters by treatment with 1 mg/ml collagenase type IV (Invitrogen), and plated in a medium containing 5 μM ROCK inhibitor. hPSC culture under naïve conditions was performed using the 5iLFA protocol (20).
Generation of FGF5 reporter cell lines—a 3 kb fragment of human FGF5 promoter (GeneBank accession number NT_016354) was amplified from HES-1 genomic DNA using Expand High Fidelity PCR System (Roche Applied Science, Penzberg, Germany) with primers CG ? TTGCTTTCCTGGCTGGGAG (SEQ ID NO: 1) (EcoRI) and CA ? AGCCTCGGGGAAGAGAAGG (SEQ ID NO: 2) (ApaI). […] Single colonies were picked, replated, and analyzed for the integrity of the integrated reporter vector. […]

## LN111: mouse LN111, 3-D Culture Matrix Laminin I (CULTREX, TREVIGEN), coating of culture dishes
Reporter clone #1 cultured on LN111
  percentage of FGF5-GFP expressing cells: 86%±2
Reporter clone #2 cultured on LN111
  percentage of FGF5-GFP expressing cells: 90%±1
Reporter clone #3 cultured on LN111
  percentage of FGF5-GFP expressing cells: 79%±3
